Legend:
[1] = test system: Corynebacterium ammoniagenes strain CJ112 (ATCC-6872); test: Growth on minimal agar medium containing the agent; biochemical properties of parent strain; assay type: cell-based
Experimental: (§1) The biochemical properties of representative variants of the novel strain CJIP009 according to the present invention is shown in the following Table 1 (This invention is not limited to the following properties).
(§2) Corynebacterium ammoniagenes strain CJ112 (ATCC-6872), the parent strain, was suspended to 10^7˜10^8 cells/mL in the phosphate buffer (pH 7.0) or citrate buffer (pH 5.5). N-methyl-N′-nitro-N-nitrosoguanidine (NTG) was added to a final concentration of 10˜50 μg/mL at room temperature or 32° C. After 20˜40 minutes, cells were washed twice with 0.85% saline. Colonies were obtained by suitably suspending and spreading cells on a minimal medium (Medium 2) containing 1.7% agar. Then, each colony was tooth picked on to the minimal medium (Medium 2) containing 1.7% agar and on the minimal medium (Medium 2) containing 1.7% agar and […] of lysozyme. First, microorganisms that grew on the minimal medium containing 1.7% agar, but not on the minimal medium containing 40 μg/mL of lysozyme were selected. […] The colony of highly lysozyme sensitive microorganisms was cultivated on a nutrition medium (Medium 1), then cultivated for 24 hours on a seed medium (Medium 3), and cultivated for 3˜4 days on a culture medium (Medium 4) thereby to select LY002 that can produce 5′-inosinic acid accumulated in the culture medium at the largest amounts.

[2] = test system: Corynebacterium ammoniagenes CJIP009 (KCCM-10226); test: Growth on minimal agar medium containing the agent; biochemical properties of mutant CJIP009; assay type: cell-based; conditions: strain CJIP009 (KCCM-10226)
Experimental: The protocol by which the mutant microorganims of the present invention was isolated began with strain CJ 12 as the parental strain and consisted of several iterations of mutagenesis and screening. In each iteration, microorganisms were treated with X-ray irradiation, ultraviolet ray irradiation, and/or a chemical mutagen, such as N-methyl-N′-nitro-N-nitrosoguanidine (NTG), diethyl sulfate, ethyl amine, etc., and then screened for 5′-inosinic acid production. Treated bacteria were suitably suspended and spread on a minimal medium (Medium 2) containing 1.7% agar and each concentration of variants. Then, each colony was cultivated on a nutrition medium (Medium 1) followed by a seed medium (Medium 3) for 24 hours and a fermentation medium (Medium 4) for […]. Colonies that produced the highest levels of 5′-inosinic acid were selected for subsequent rounds of mutagenesis.
as §1
The mutant of Example 5, strain CITP13, was used as the parent strain for Example 6. CITP13 was suspended to 10^7˜10^8 cells/mL in the phosphate buffer (pH 7.0) or citrate buffer (pH 5.5). NTG mutagenesis was performed as in Example 1. Colonies were obtained by suitably suspending and spreading cells on a 3 minimal media (Medium 2), which contained 1.7% agar and 50 μg/ml, 75 μg/ml, or 100 μg/mL of azaserine, respectively. Then, each colony was cultivated on the nutrition medium (Medium 1), then cultivated for 24 hours on a seed medium (Medium 3), and cultivated for 3–4 days on a culture medium (Medium 4) thereby to select CJIP009 (KCCM-10226) that can produce 5′-inosinic acid accumulated in the culture medium at the largest amounts.

[3] = test system: CISM10; test: Growth on minimal agar medium containing the agent, strain CISM10; assay type: cell-based, Corynebacterium ammoniagenes
Experimental: The mutant of Example 1, strain LY002, was used as the parent strain for Example 2. LY002 was suspended to 10^7˜10^8 cells/mL in the phosphate buffer (pH 7.0) or citrate buffer (pH 5.5). NTG mutagenesis was performed as in Example 1. Colonies were obtained by suitably suspending and spreading cells on a 3 minimal media (Medium 2), which contained 1.7% agar and 1,000 μg/ml, 1,500 μg/mL or 2,000μg/mL of streptomycin, respectively. Then, each colony was cultivated on the nutrition medium (Medium 1), then cultivated for 24 hours on a seed medium (Medium 3), and cultivated for 3˜4 days on a culture medium (Medium 4) thereby to select CISM10 that can produce 5′-inosinic acid accumulated in the culture medium at the largest amounts.
The mutant of Example 2, strain CISM10, was used as the parent strain for Example 3. CISM10 was suspended to 10^7˜10^8 cells/mL in the phosphate buffer (pH 7.0) or citrate buffer (pH 5.5). NTG mutagenesis was performed as in Example 1. Colonies were obtained by suitably suspending and spreading cells on a 3 minimal media (Medium 2), which contained 1.7% agar and 1,500 μg/ml, 2,500 μg/ml, or 3,500 μg/mL of 3,4-dehydroproline, respectively. Then, each colony was cultivated on the nutrition medium (Medium 1), then cultivated for 24 hours on a seed medium (Medium 3), and cultivated for 3–4 days on a culture medium (Medium 4) thereby to select […] that can produce 5′-inosinic acid accumulated in the culture medium at the largest amounts.

[4] = test system: CS101; test: Growth on minimal agar medium containing the agent, strain CS101; assay type: cell-based, Corynebacterium ammoniagenes
[5] = test system: CITP13; test: Growth on minimal agar medium containing the agent, strain CITP13; assay type: cell-based, Corynebacterium ammoniagenes
Experimental: The mutant of Example 4, strain CIAC12, was used as the parent strain for Example 5. CIAC12 was suspended to 10^7˜10^8 cells/mL in the phosphate buffer (pH 7.0) or citrate buffer (pH 5.5). NTG mutagenesis was performed as in Example 1. Colonies were obtained by suitably suspending and spreading cells on a 3 minimal media (Medium 2), which contained 1.7% agar and 20 μg/ml, 50 μg/ml, or 100 μg/mL of L-thiazolidine-4-carboxylic acid, respectively. Then, each colony was cultivated on the nutrition medium (Medium 1), then cultivated for 24 hours on a seed medium (Medium 3), and, cultivated for 3˜4 days on a culture medium (Medium 4) thereby to select CITP13 that can produce 5′-inosinic acid accumulated in the culture medium at the largest amounts.
The mutant of Example 5, strain CITP13, was used as the parent strain for Example 6. CITP13 was suspended to 10^7˜10^8 cells/mL in the phosphate buffer (pH 7.0) or citrate buffer (pH 5.5). NTG mutagenesis was performed as in Example 1. Colonies were obtained by suitably suspending and spreading cells on a 3 minimal media (Medium 2), which contained 1.7% agar and 50 μg/ml, 75 μg/ml, or 100 μg/mL of azaserine, respectively. […]

[6] = test system: CIAC12; test: Growth on minimal agar medium containing the agent, strain CIAC12; assay type: cell-based, Corynebacterium ammoniagenes
Experimental: The mutant of Example 3, strain CS101, was used as the parent strain for Example 4. CS101 was suspended to 10^7˜10^8 cells/mL in the phosphate buffer (pH 7.0) or citrate buffer (pH 5.5). NTG muta genesis was performed as in Example 1. Colonies were obtained by suitably suspending and spreading cells on a 3 minimal media (Medium 2), which contained 1.7% agar and 10 μg/ml, 20 μg/ml, or 30 μg/mL of L-azetidine-2-carboxylic acid, respectively. Then, each colony was cultivated on the nutrition medium (Medium 1), then cultivated for 24 hours on a seed medium (Medium 3), and cultivated for 3˜4 days on a culture medium (Medium 4), thereby to select CIAC12 that can produce 5′-inosinic acid accumulated in the culture medium at the largest amounts.

[7] = test system: the present strain; test: Effect of amino acids on synthesis of 5'-inosinic acid by direct fermentation; assay type: cell-based, Corynebacterium ammoniagenes; conditions: added to the medium
Excerpt: Accordingly, the present inventors tested the effect of various amino acids on the synthesis of 5′-inosinic acid by direct fermentation. As the result, the inventors determined that the fermentation concentration of 5′-inosinic acid increased upon addition of L-glutamine to the medium. The inventors further determined that the appropriate supply of L-glutamine to the present strain is a rate-limiting step in the synthesis of 5′-inosinic acid.

[8] = test system: LY002; test: Growth on minimal agar medium containing the agent, strain LY002; assay type: cell-based, Corynebacterium ammoniagenes
Experimental: as §2
The mutant of Example 1, strain LY002, was used as the parent strain for Example 2. LY002 was suspended to 10^7˜10^8 cells/mL in the phosphate buffer (pH 7.0) or citrate buffer (pH 5.5). NTG mutagenesis was performed as in Example 1. […]

## O=C(O)C1C=CCN1 (stereo not shown) [3,4-dehydroproline]
[1]; strain ATCC6872
  Resistance to agent (concentration): 1,000 μg/ml
[2]
  Resistance to agent (concentration): 3,500 μg/ml
[3]
  Concentration of 3,4-dehydroproline at which the microorganism shows resistance: 1,000 μg/ml
[4]
  Concentration of 3,4-dehydroproline at which the microorganism shows resistance: 3,500 μg/ml

## [N-]=[N+]=CC(=O)OC[C@H](N)C(=O)O [Azaserine]
[1]; strain ATCC6872
  Resistance to agent (concentration): 25 µg/mL
[2]
  Concentration of azaserine at which the microorganism shows resistance: 100 µg/mL
  Resistance to agent (concentration): 100 µg/mL
[5]
  Concentration of azaserine at which the microorganism shows resistance: 25 µg/mL

## O=C(O)[C@@H]1CCN1 [L-azetidine-2-carboxylic acid]
[1]; strain ATCC6872
  Resistance to agent (concentration): 5000 µg/mL
[2]
  Resistance to agent (concentration): 30000 µg/mL
[3]
  Concentration of L-azetidine-2-carboxylic acid at which the microorganism shows resistance: 5 mg/mL
[6]
  Concentration of L-azetidine-2-carboxylic acid at which the microorganism shows resistance: 30 mg/mL

## NC(=O)CC[C@H](N)C(=O)O [L-glutamine]
[7]
  Fermentation concentration of 5'-inosinic acid upon addition to the medium: increased

## O=C(O)[C@@H]1CSCN1 [L-thiazolidine-4-carboxylic acid]
[1]; strain ATCC6872
  Resistance to agent (concentration): 10 µg/mL
[2]
  Resistance to agent (concentration): 100 µg/mL
[3]
  Concentration of L-thiazolidine-4-carboxylic acid at which the microorganism shows resistance: 10 µg/mL
[4]
  Concentration of L-thiazolidine-4-carboxylic acid at which the microorganism shows resistance: 100 µg/mL

## [H]/N=C(/N)N[C@H]1[C@H](O)[C@@H](O)[C@H](O[C@@H]2O[C@@H](C)[C@](O)(C=O)[C@H]2O[C@@H]2O[C@@H](CO)[C@H](O)[C@@H](O)[C@@H]2NC)[C@@H](N/C(N)=N\[H])[C@@H]1O [Streptomycin, streptomycin]
[1]; strain ATCC6872
  Resistance to agent (concentration): 500 µg/mL
[2]
  Resistance to agent (concentration): 2,000 μg/ml
[8]
  Concentration of streptomycin at which the microorganism shows resistance: 500 µg/mL
[3]
  Concentration of streptomycin at which the microorganism shows resistance: 2,000 μg/ml

## lysozyme
[1]; strain ATCC6872
  Sensitivity to lysozyme (minimal growth inhibition concentration): 80 µg/mL
[1]; strain CJ112
  Concentration of lysozyme at which the microorganism shows sensitivity: 80 µg/mL
[2]
  Sensitivity to lysozyme (minimal growth inhibition concentration): 8 µg/mL
[8]
  Concentration of lysozyme at which the microorganism shows sensitivity: 8 µg/mL

Source: US7244608B2, “Microorganism producing 5′-inosinic acid and process for producing 5′-inosinic acid using the same” (priority 2000, dated 2007)
